Reference: US7138493B1, “ATP-binding cassette protein responsible for cytotoxin resistance” (The United States of America as represented by the …, priority 1998, dated 2006)

Assays:
[1] = system: cells that overexpress MXR1; experiment: Drug resistance of cells that overexpress MXR1; type: cell-based
Source text: These include mitoxantrone, several anthracyclines, rhodamine, daunomycin, SN-38 (the active metabolite of CPT-11), topotecan, and bisantrene. To identify compounds that can reverse the effect of ABCP overexpression, the concentration of drug that inhibits the proliferation of resistant cells by 50% (IC50) can be measured by an assay in the presence and absence of putative inhibitors. Compounds that cause a significant decrease in the IC50 will represent inhibitors and be characterized further.
These include mitoxantrone, several anthracyclines, rhodamine, daunomycin, SN-38 (the active metabolite of CPT-11), topotecan, and bisantrene. To identify compounds that can reverse the effect of MXR1 overexpression, the concentration of drug that inhibits the proliferation of resistant cells by 50% (IC50) will be measured in the presence and absence of putative inhibitors. Compounds that cause a significant decrease in the IC50 will represent inhibitors and be characterized further. For example, S1-M1-80 cells can be incubated in media containing 30 micromolar (IC10) of mitoxantrone and the proliferation of the cells measured by sulforhodamine staining after 96 hours with and without the addition of various potential inhibitors, as a screening assay. Next, for compounds that have potential activity, a formal calculation of the IC50 can be made by incubating the cells in a range of concentrations, diluting 3-fold from 3 mM, again, with and without the inhibitor in question. […] In the absence of a reversal agent, the IC50 is 100 micromolar for the S1M1-80 cells. Compounds that lower the IC50 for mitoxantrone can be tested for their ability to also lower the IC50 for other MXR1-transporting drugs such as adriamycin, topotecan, or bisantrene.

S1-M1-80 cells = experiment: Proliferation of mitoxantrone resistant cells measured by sulforhodamine staining; type: cell-based, human
Protocol: The cells are then contacted with a toxic chemotherapy drug, such as mitoxantrone or daunomycin, in an amount that permits cell survival due to the resistance conferred by the ATP-binding cassette protein. The amount used is preferably from about 30 μM to about 3 mM. The cells are exposed to the drug for a time that is preferably from about 48 hours to about 96 hours. Cell growth is measured for these cells based on sulforhodamine staining measurement. Alternatively, cell growth can be monitored by vital stains, metabolite measurements or counting cell divisions.
One specific way to measure cell viability is by a calorimetric assay (Skehan et al., Natl. Cancer Inst. 82: 1117–1121 (1990)). […] The number of viable cells can then be determined by measuring the OD at 570 nm. Alternatively, viability of cells can be measured by counting cells with a cell counter or by incorporation of tritiated thymidine.
These include mitoxantrone, several anthracyclines, rhodamine, daunomycin, SN-38 (the active metabolite of CPT-11), topotecan, and bisantrene. […] For example, S1-M1-80 cells can be incubated in media containing 30 micromolar (IC10) of mitoxantrone and the proliferation of the cells measured by sulforhodamine staining after 96 hours with and without the addition of various potential inhibitors, as a screening assay. […]

C(=N\NC1=NCCN1)/c1c2ccccc2c(/C=N/NC2=NCCN2)c2ccccc12 [bisantrene]
resistance of cells that overexpress MXR1 to the drug [1]: resistant

COc1cccc2c1C(=O)c1c(O)c3c(c(O)c1C2=O)C[C@@](O)(C(C)=O)C[C@@H]3O[C@H]1C[C@H](N)[C@H](O)[C@H](C)O1 [daunomycin]
resistance of cells that overexpress MXR1 to the drug [1]: resistant

CCc1c2c(nc3ccc(O)cc13)-c1cc3c(c(=O)n1C2)COC(=O)[C@]3(O)CC [SN-38]
resistance of cells that overexpress MXR1 to the drug [1]: resistant

rhodamine
resistance of cells that overexpress MXR1 to the drug [1]: resistant

O=C1c2c(O)ccc(O)c2C(=O)c2c(NCCNCCO)ccc(NCCNCCO)c21 [mitoxantrone]
IC50 (S1-M1-80 cells; Homo sapiens, S1-M1-80, S1M1-80 cells, in the absence of a reversal agent, read-out: IC50 (concentration of drug that inhibits the proliferation of resistant cells by 50%)): 100 µM
IC10 (S1-M1-80 cells; S1-M1-80 cells, concentration in media for the screening assay, 96 hours): 30 µM
resistance of cells that overexpress MXR1 to the drug [1]: resistant

CC[C@@]1(O)C(=O)OCc2c1cc1n(c2=O)Cc2cc3c(CN(C)C)c(O)ccc3nc2-1 [topotecan]
resistance of cells that overexpress MXR1 to the drug [1]: resistant
